Experimental data taken from patent publication US20140039044A1, “Hydroxylated Polymethoxyflavone Compositions” (WLLGEN, INC., priority 2006, published 2014).

Columns and labels:
iNOS = test: Western blot of LPS-induced iNOS protein expression; format: cell-based, mouse; details: LPS-activated macrophages, 30 μM, 24 h, FIG. 4
Experimental: (§1) Proteins were isolated from cells after treatment with test compounds for 24 h. Total protein was extracted by adding 200 μL of gold lysis buffer (50 mM Tris-HCl, pH 7.4; 1 mM NaF; 150 mM NaCl; 1 mM EGTA; 1 mM phenylmethanesulfonyl fluoride; 1% NP-40; and 10 μg/mL leupeptin) to the cell pellets, which were kept on ice for 30 minutes, followed by centrifugation at 10,000×g for 30 min at 4° C. The protein concentrations of the cytosolic fraction (supernatant) were measured by BIO-RAD Protein Assay (Bio-Rad Laboratories, Munich, Germany). Samples containing 50 μg of protein were electrophoretically separated by SDS-PAGE and transferred to PVDF membrane (Millipore Corp., Bedford, Mass.) using standard procedures. See Burnette (1981) Anal. Biochem. 112:195-203. […]
(§2) Western blot analysis of inhibition of LPS-induced iNOS and COX-2 protein expression by PMFs was analyzed, following procedures described above. […] Equal amounts of total proteins (50 μg) were subjected to 10% SDS-PAGE, and expression of iNOS, COX-2 and β-actin protein was detected by Western blot using specific antibodies.

[1] = test system: intracellular Ca^2+ stores in MCF-7 cells; test: Ca2+ mobilization from endoplasmic reticulum stores with thapsigargin (fura-2); format: cell-based, human; details: for Filling of the endoplasmic reticulum Ca^2+ stores, in words: 25 μM; for Decrease of the Ca^2+ mobilization response: compound 4: 6.25 μM, compound 5: 12.5 μM
Experimental: (§3) To evaluate Ca^2+ influx from the extracellular space, the Mn^2+ entry rate, as a reporter of Ca^2+ influx, was measured. The images were recorded at excitation of 360 nm (the fura-2 isosbestic point) and 2 mM of extracellular Mn^2+. The rates of Ca^2+ entry were estimated from the slope of the liner portion of curves of the fura-2 fluorescence quench by Mn^2+. To evaluate Ca^2+ release from the intracellular stores, cells grown on coverslips were placed in D-PBS, and the mobilizer of the endoplasmic reticulum Ca^2+-stores, thapsigargin (1 μM), was added after recording the basal [Ca^2+]i. The peak values of the [Ca^2+]i increase, indicating the filling level of the Ca^2+-stores, were measured with fura-2.
(§4) To investigate mechanism of a sustained increase in [Ca^2+]i after treatment with PMFs, the rates of the background Ca^2+ influx from the extracellular space and the magnitudes of Ca^2+ release from the endoplasmic reticulum stores with thapsigargin were measured in the treated cells using methods described above.
(§5) In FIG. 11A through 11D, the concentration for each PMF was as follows: compound 4: 6.25 μM; compound 5: 12.5 μM; compound 6: 25 μM; and compound 7: 25 μM. […] The Ca^2+ entry rates (C, D) are presented as tangents of the linear portions of the fura-2 quench curves. Data in panel C are presented as means±SE for control cells or cells treated with PMFs 3 days (black bars) or 6 days (gray bars). […] Mn^2+ or thapsigargin was added after recording the basal level of fluorescence or basal [Ca^2+]i for 30-60 s.

[2] = test system: Ca^2+ influx in MCF-7 cells; test: Ca2+ influx (Mn2+ entry rate, fura-2 quench); format: cell-based, human; details: for Ca^2+ influx, in words: 25 μM; for Increase of Ca^2+ influx (Ca^2+ entry rates): compound 4: 6.25 μM, compound 5: 12.5 μM
Experimental: as §3, §4, §5

COX-2 = test: Western blot of LPS-induced COX-2 protein expression; format: cell-based, mouse; details: LPS-activated macrophages, 30 μM, 24 h, FIG. 4
Experimental: as §1, §2

[3] = test system: LPS-induced NFκB promoter activities in RAW264.7 macrophages; test: NFκB-dependent luciferase reporter assay; format: cell-based, mouse; details: FIG. 5
Experimental: RAW264.7 cells were seeded in […]. When the cells were confluent, the medium was replaced with serum-free Opti-MEM (Gibco-BRL). Then the cells were transfected with the p-NFκB-Luc plasmid reporter gene using LIPOFECTAMINE™ reagent (Invitrogen). After 6 h incubation, the medium was replaced with complete medium. After 24 h, the cells were trypsinized and equal numbers of cells were plated in 24 well tissue culture plates for 6 h. Cells were then treated with LPS (100 ng/ml) alone or with PMFs (10 or 30 μM) for 12 h. Each well was wash twice with cold PBS and harvested in 100 μl serum-free DMEM, and the luciferase activity was assayed by LUCILITE luciferase reporter gene assay kit (PerkinElamer). Luminescence was measured in a Luminescence counter (Molecular Devices, LMaxII) in single photon counting mode for 2 sec/well, following 5 min adaptation in the dark.
To confirm whether selected PMFs inhibited NFκB binding activity in LPS-induced macrophages, assessment of luciferase expression in cells transiently transfected with NFκB-dependent luciferase reporter plasmid was assessed according to the procedures described above in Section 8.4.

COX-2 mRNA = test: LPS-induced COX-2 mRNA expression by real-time PCR; format: cell-based, mouse; details: RAW264.7 macrophages, 100 ng/mL LPS, 20 μM, relative to G3PDH, FIG. 6
Experimental: Bacterial lipopolysaccharide (LPS)-induced COX-2 expression was monitored in RAW264.7 macrophages, as previously described. Briefly, COX-2 expression was determined in untreated cells and cells treated with 100 ng/mL LPS either in the absence or the presence of 20 μM 5-hydroxy-3,6,7,8,3′,4′-hexamethoxyflavone. COX-2 mRNA levels were determined by real-time PCR where the values obtained were relative to expression of glyceraldehyde-3-phosphate dehydrogenase (G3PDH).

Row | SMILES | Filling of the endoplasmic reticulum Ca^2+ stores, in words [1] | Ca^2+ influx, in words [2] | Decrease of the Ca^2+ mobilization response [1] [fold] | Increase of Ca^2+ influx (Ca^2+ entry rates) [2] [fold] | further results
1 | COc1ccc(-c2cc(=O)c3c(O)c(OC)c(OC)c(OC)c3o2)cc1O [Compound K, 5,3′-dihydroxy-6,7,8,4′-tetramethoxyflavone] | – | – | – | – | Inhibition of iNOS expression (Western blot), in words (iNOS): most potent inhibitor of iNOS expression
2 | COc1ccc(-c2oc3c(OC)c(OC)c(OC)c(OC)c3c(=O)c2OC)cc1OC [D, 3,5,6,7,8,3,4-heptamethoxyflavone, reference compound] | did not affect the filling of the endoplasmic reticulum Ca^2+ stores | did not significantly increase Ca^2+ influx | – | – | –
3 | COc1c(OC)c(OC)c2c(=O)cc(-c3ccc(O)c(O)c3)oc2c1OC [H, 3′,4′-dihydroxy-5,6,7,8-tetramethoxyflavone] | – | – | – | – | Inhibition of COX-2 expression (Western blot), in words (COX-2): most potent inhibitor of COX-2 expression; Rank of inhibitory potency on LPS-induced NFκB transcriptional activity ([3]; RAW264.7, 30 μM): greatest inhibitory potency of PMFs tested; Inhibition of LPS-induced NFκB transcriptional activity, in words ([3]; RAW264.7, LPS 100 ng/ml, PMF 10 or 30 μM, 12 h): inhibited LPS-induced NFκB transcriptional activity in a concentration-dependent manner
4 | COc1ccc(-c2cc(=O)c3c(OC)c(OC)c(OC)cc3o2)cc1OC [Compound 7, 5,6,7,3′,4′-pentamethoxyflavone, reference compound] | did not affect the filling of the endoplasmic reticulum Ca^2+ stores | did not significantly increase Ca^2+ influx | – | – | –
5 | COc1ccc(-c2oc3c(OC)c(OC)c(OC)c(O)c3c(=O)c2OC)cc1OC [Compound C, 5-hydroxy-3,6,7,8,3′,4′-hexamethoxyflavone] | – | – | 1.5 | 1.8 | Inhibition of LPS-induced COX-2 mRNA expression, in words (COX-2 mRNA): inhibits LPS-induced COX-2 mRNA expression
6 | COc1ccc(-c2cc(=O)c3c(OC)c(OC)c(OC)cc3o2)cc1O [Compound 5, 3′-hydroxy-5,6,7,4′-tetramethoxyflavone] | – | – | 1.35 | 1.6 | –
